Data reported in ChEMBL document CHEMBL3865788, “Synthesis, characterization and interaction studies of 1,3,4-oxadiazole derivatives of fatty acid with human serum albumin (HSA): A combined multi-spectroscopic and molecular docking study” (Eur J Med Chem, 2016).

Assays:
Assay type in all cases: ADME
Settings in all cases: isolated protein
Albumin [1] = molecular target: T1, Albumin (Homo sapiens, UniProt P02768); assay: Binding affinity to human serum albumin assessed as Stern-Volmer quenching constant in steady state at 298K and pH 7.4 by fluorescence spectroscopy
Albumin [2] = molecular target: T1, Albumin; assay: Binding affinity to human serum albumin assessed as binding constant in steady state at 298K and pH 7.4 by fluorescence spectroscopy
Albumin [3] = molecular target: T1, Albumin; assay: Binding affinity to human serum albumin assessed as absorbance at 280 nanometer at 50 and 100 uM by UV-vis spectroscopy
Albumin [4] = molecular target: T1, Albumin; assay: Binding affinity to human serum albumin assessed as quenching constant in steady state at 298K and pH 7.4 by fluorescence spectroscopy

T1 sequence (P02768 whole entry): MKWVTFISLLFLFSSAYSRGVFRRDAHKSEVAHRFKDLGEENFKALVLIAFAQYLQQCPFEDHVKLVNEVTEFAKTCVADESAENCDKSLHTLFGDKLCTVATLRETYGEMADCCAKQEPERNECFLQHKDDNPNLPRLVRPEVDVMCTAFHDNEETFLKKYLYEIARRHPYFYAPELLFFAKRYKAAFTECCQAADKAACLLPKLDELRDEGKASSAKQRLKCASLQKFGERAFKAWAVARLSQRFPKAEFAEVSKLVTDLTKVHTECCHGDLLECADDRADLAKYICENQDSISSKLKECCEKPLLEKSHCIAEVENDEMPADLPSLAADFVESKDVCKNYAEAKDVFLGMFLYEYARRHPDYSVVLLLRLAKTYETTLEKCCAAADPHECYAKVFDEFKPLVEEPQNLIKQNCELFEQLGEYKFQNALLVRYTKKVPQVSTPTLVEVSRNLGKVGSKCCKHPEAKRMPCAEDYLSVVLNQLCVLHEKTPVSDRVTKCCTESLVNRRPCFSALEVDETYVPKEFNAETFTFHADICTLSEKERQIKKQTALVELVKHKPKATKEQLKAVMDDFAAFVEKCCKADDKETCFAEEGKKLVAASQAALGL

KSV (Albumin [1]): 3.6 ×10³ /M
Kb (Albumin [2]): 2.95 ×10³ /M
Activity (Albumin [3]): < 0.03
Kq (Albumin [4]): 6.4 ×10¹¹ /M/s
SMILES: CCCCCCCC/C=C\CCCCCCCc1nnc(C)o1
